Reference: PubChem BioAssay AID330 (DTP/NCI, 2004)
Values joined by “and” are separate entries in the source; they are usually repeats but may differ in a detail not shown here. Identical values can stand only once. Inconclusive results and toxic doses are left out.

Test system: P388 leukemia ip, CD2F1 mice, survival T/C
Experiment: NCI In Vivo Anticancer Drug Screen. Data for tumor model P388 Leukemia (intraperitoneal) in CD2F1 (CDF1) mice
Conditions: endpoint: median survival time, higher = longer survival
How it was run: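 Mice carrying the transplanted tumor received test compound or vehicle. Survival was recorded in each group, and the value is the treated-group measurement divided by that of the vehicle-treated control group.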

[1] = dose: 50.0 mg/kg/injection, schedule: Q01DX005 (ip), vehicle: Klucel (hydroxypropylcellulose) (HPC)
[2] = dose: 100.0 mg/kg/injection, schedule: Q01DX005 (ip), vehicle: Klucel (hydroxypropylcellulose) (HPC)
[3] = dose: 200.0 mg/kg/injection, schedule: Q01DX005 (ip), vehicle: Klucel (hydroxypropylcellulose) (HPC)
[4] = dose: 60.0 mg/kg/injection, schedule: Q01DX005 (ip), vehicle: saline with Tween-80
[5] = dose: 60.0 mg/kg/injection, schedule: Q01DX005 (ip), vehicle: saline
[6] = dose: 120.0 mg/kg/injection, schedule: Q01DX005 (ip), vehicle: saline with Tween-80
[7] = dose: 240.0 mg/kg/injection, schedule: Q01DX005 (ip), vehicle: saline with Tween-80
[8] = dose: 12.5 mg/kg/injection, schedule: Q01DX009 (ip), vehicle: saline
[9] = dose: 25.0 mg/kg/injection, schedule: Q01DX009 (ip), vehicle: saline

With Oc1ccccc1C=Nc1c(Cl)cc(Cl)cc1Cl the T/C [1] was 105 % of control, the T/C [2] was 109 % of control and the T/C [3] was 107 % of control.

For ClCC[N-]CC[N-]CCCl.ClCC[N-]CC[N-]CCCl.[O-][Cl+3]([O-])([O-])O.[Zn+2], the T/C (dose: 5.0 mg/kg/injection, schedule: Q04DX003 (ip), vehicle: saline with Tween-80) was 102 % of control and the T/C (dose: 10.0 mg/kg/injection, schedule: Q04DX003 (ip), vehicle: saline with Tween-80) was 111 % of control.

With COC(=O)C(C)N(CCCl)P1(=O)OCCCN1CCCl (centres undefined) the T/C [4] was 108 % of control, the T/C [5] was 99 % of control and the T/C [6] was 124 % of control. For the same molecule, the T/C [7] was 165 % of control, the T/C (dose: 240.0 mg/kg/injection, schedule: Q01DX005 (ip), vehicle: saline) was 297 % of control and the T/C (dose: 400.0 mg/kg/injection, schedule: Q01DX005 (ip), vehicle: saline with Tween-80) was 252 % of control.

In the case of CSC(=S)NN=C(c1ccccn1)c1ccccn1, the T/C (dose: 6.25 mg/kg/injection, schedule: Q01DX009 (ip), vehicle: saline with Tween-80) is reported as 96 % of control, the T/C (dose: 12.5 mg/kg/injection, schedule: Q01DX009 (ip), vehicle: saline with Tween-80) is reported as 99 % of control and the T/C (dose: 25.0 mg/kg/injection, schedule: Q01DX009 (ip), vehicle: saline with Tween-80) is reported as 92 % of control. For the same molecule, the T/C (dose: 100.0 mg/kg/injection, schedule: Q01DX009 (ip), vehicle: saline with Tween-80) was 91 % of control and the T/C (dose: 200.0 mg/kg/injection, schedule: Q01DX009 (ip), vehicle: saline with Tween-80) was 88 % of control.

With CN(C)CCC[n+]1cc2c3ccccc3c(N)cc2c2ccccc21 the T/C (dose: 3.13 mg/kg/injection, schedule: Q04DX003 (ip), vehicle: water) was 104 % of control, the T/C (dose: 6.25 mg/kg/injection, schedule: Q04DX003 (ip), vehicle: water) was 121 % of control and the T/C (dose: 12.5 mg/kg/injection, schedule: Q04DX003 (ip), vehicle: water) was 109 % of control. The T/C (dose: 25.0 mg/kg/injection, schedule: Q04DX003 (ip), vehicle: water) was 109 % of control.

In the case of CN(N=O)C1=NC2(CCCCC2)P(=O)(NNc2ncccn2)O1 (centres undefined), the T/C [5] is reported as 101 % of control and the T/C (dose: 120.0 mg/kg/injection, schedule: Q01DX005 (ip), vehicle: saline) is reported as 102 % of control.

O=NN(CCCl)C(=O)Oc1ccc(F)cc1 was tested, and the T/C (dose: 3.12 mg/kg/injection, schedule: Q01DX001 (ip), vehicle: saline with Tween-80) was 118 % of control, the T/C (dose: 6.25 mg/kg/injection, schedule: Q01DX001 (ip), vehicle: saline with Tween-80) was 116 % of control and the T/C (dose: 50.0 mg/kg/injection, schedule: Q01DX001 (ip), vehicle: saline with Tween-80) was 106 % of control.

For COc1ccc(-c2cc(=O)c3c(O)cc(O)c(-c4cc(-c5cc(=O)c6c(O)cc(OC)cc6o5)ccc4OC)c3o2)cc1, the T/C [1] was 105 % of control, the T/C [2] was 99 % of control and the T/C [3] was 88 % of control.

For Cc1cccc2c(/C=C/c3ccc(N(C)C)cc3)ccnc12, the T/C (dose: 25.0 mg/kg/injection, schedule: Q01DX009 (ip), vehicle: Klucel (hydroxypropylcellulose) (HPC)) was 105 % of control, the T/C (dose: 50.0 mg/kg/injection, schedule: Q01DX009 (ip), vehicle: Klucel (hydroxypropylcellulose) (HPC)) was 105 % of control and 117 % of control and the T/C (dose: 100.0 mg/kg/injection, schedule: Q01DX009 (ip), vehicle: Klucel (hydroxypropylcellulose) (HPC)) was 117 % of control. For the same molecule, the T/C (dose: 200.0 mg/kg/injection, schedule: Q01DX009 (ip), vehicle: Klucel (hydroxypropylcellulose) (HPC)) was 106 % of control.

CC12CCC(c3cn[nH]c31)C2(C)C (centres undefined) was tested, and the T/C (dose: 60.0 mg/kg/injection, schedule: Q01DX005 (ip), vehicle: Klucel (hydroxypropylcellulose) (HPC)) was 100 % of control, the T/C (dose: 120.0 mg/kg/injection, schedule: Q01DX005 (ip), vehicle: Klucel (hydroxypropylcellulose) (HPC)) was 100 % of control and the T/C (dose: 240.0 mg/kg/injection, schedule: Q01DX005 (ip), vehicle: Klucel (hydroxypropylcellulose) (HPC)) was 100 % of control.

With COc1cc(NCCN(C(C)C)C(C)C)c2ncccc2c1 the T/C (dose: 12.5 mg/kg/injection, schedule: Q01DX005 (ip), vehicle: saline) was 101 % of control, the T/C (dose: 25.0 mg/kg/injection, schedule: Q01DX005 (ip), vehicle: saline) was 93 % of control and the T/C (dose: 50.0 mg/kg/injection, schedule: Q01DX005 (ip), vehicle: saline) was 90 % of control and 92 % of control.

Cc1ccc(S(=O)(=O)/C=C/C(=O)c2cccs2)cc1 was tested, and the T/C (dose: 100.0 mg/kg/injection, schedule: Q04DX002 (ip), vehicle: saline) was 99 % of control, the T/C (dose: 200.0 mg/kg/injection, schedule: Q04DX002 (ip), vehicle: saline) was 100 % of control and the T/C (dose: 400.0 mg/kg/injection, schedule: Q04DX002 (ip), vehicle: saline) was 107 % of control.

C[N+](C)=NC1CCC(C(C)(C)C)CC1 (centres undefined) was tested, and the T/C (dose: 12.5 mg/kg/injection, schedule: Q01DX005 (ip), vehicle: saline with Tween-80) was 99 % of control, the T/C (dose: 25.0 mg/kg/injection, schedule: Q01DX005 (ip), vehicle: saline with Tween-80) was 99 % of control and the T/C (dose: 50.0 mg/kg/injection, schedule: Q01DX005 (ip), vehicle: saline with Tween-80) was 100 % of control.

C[C@]12CC[C@H]3[C@@H](CC=C4C[C@@H](O)CC[C@@]43C)[C@@H]1CC[C@@H]2N(CCO)CCO was tested, and the T/C [1] was 96 % of control, the T/C [2] was 100 % of control and the T/C [3] was 97 % of control.

O=c1c2ccccc2ccn1O was tested, and the T/C [1] was 97 % of control, the T/C [2] was 89 % of control and the T/C [3] was 89 % of control.

O=[N+]([O-])c1ccc(C2OCC3CSCN32)cc1 (centres undefined) was tested, and the T/C (dose: 100.0 mg/kg/injection, schedule: Q04DX002 (ip), vehicle: saline with Tween-80) was 107 % of control, the T/C (dose: 200.0 mg/kg/injection, schedule: Q04DX002 (ip), vehicle: saline with Tween-80) was 97 % of control and the T/C (dose: 400.0 mg/kg/injection, schedule: Q04DX002 (ip), vehicle: saline with Tween-80) was 97 % of control.

With C[n+]1ccc(NN)cc1 the T/C [1] was 100 % of control, the T/C [2] was 103 % of control and the T/C [3] was 101 % of control.

For CC1(C)Oc2ccc3ccc(=O)oc3c2C(O)C1O (centres undefined), the T/C [1] was 97 % of control, the T/C [2] was 96 % of control and the T/C [3] was 92 % of control.

For CCOc1ccc(N=C2C=C(Nc3ccc(OCC)cc3)C(=Nc3ccc(OCC)cc3)C=C2Nc2ccc(OCC)cc2)cc1, the T/C [4] was 96 % of control, the T/C [6] was 95 % of control and the T/C [7] was 92 % of control.

In the case of NC(=O)c1csc(C2OC(CO)C(O)C2O)n1 (centres undefined), the T/C (dose: 75.0 mg/kg/injection, schedule: Q01DX005 (ip), vehicle: saline) is reported as 158 % of control, the T/C (dose: 100.0 mg/kg/injection, schedule: Q01DX005 (ip), vehicle: saline) is reported as 155 % of control and 159 % of control and 161 % of control and the T/C (dose: 100.0 mg/kg/injection, schedule: Q01DX005 (ip), vehicle: water) is reported as 157 % of control. For the same molecule, the T/C (dose: 150.0 mg/kg/injection, schedule: Q01DX005 (ip), vehicle: saline) was 152 % of control and 158 % of control, the T/C (dose: 200.0 mg/kg/injection, schedule: Q01DX005 (ip), vehicle: saline) was 173 % of control and 174 % of control and 178 % of control and the T/C (dose: 200.0 mg/kg/injection, schedule: Q01DX005 (ip), vehicle: water) was 171 % of control. For the same molecule, the T/C (dose: 300.0 mg/kg/injection, schedule: Q01DX005 (ip), vehicle: saline) was 163 % of control and 177 % of control, the T/C (dose: 300.0 mg/kg/injection, schedule: Q01DX005 (ip), vehicle: water) was 158 % of control and the T/C (dose: 300.0 mg/kg/injection, schedule: Q01DX009 (ip), vehicle: water) was 193 % of control and 198 % of control. The T/C (dose: 400.0 mg/kg/injection, schedule: Q01DX005 (ip), vehicle: saline) was 181 % of control and 187 % of control and 198 % of control, the T/C (dose: 400.0 mg/kg/injection, schedule: Q01DX005 (ip), vehicle: water) was 164 % of control and 189 % of control and the T/C (dose: 400.0 mg/kg/injection, schedule: Q01DX009 (ip), vehicle: water) was 201 % of control and 224 % of control. The T/C (dose: 600.0 mg/kg/injection, schedule: Q01DX005 (ip), vehicle: saline) was 177 % of control, the T/C (dose: 600.0 mg/kg/injection, schedule: Q01DX005 (ip), vehicle: water) was 169 % of control and the T/C (dose: 600.0 mg/kg/injection, schedule: Q01DX009 (ip), vehicle: water) was 234 % of control and 237 % of control. For the same molecule, the T/C (dose: 700.0 mg/kg/injection, schedule: Q01DX009 (ip), vehicle: water) was 245 % of control and 86 % of control, the T/C (dose: 750.0 mg/kg/injection, schedule: Q01DX009 (ip), vehicle: water) was 117 % of control and the T/C (dose: 800.0 mg/kg/injection, schedule: Q01DX005 (ip), vehicle: saline) was 217 % of control. For the same molecule, the T/C (dose: 800.0 mg/kg/injection, schedule: Q01DX009 (ip), vehicle: water) was 99 % of control and 245 % of control.

Nc1cccc(N)n1 was tested, and the T/C (dose: 3.12 mg/kg/injection, schedule: Q01DX009 (ip), vehicle: saline) was 102 % of control, the T/C (dose: 6.25 mg/kg/injection, schedule: Q01DX009 (ip), vehicle: saline) was 101 % of control (2×) and 103 % of control and the T/C [8] was 100 % of control and 109 % of control and 114 % of control. The T/C [9] was 112 % of control and 124 % of control.

In the case of O=C1c2ccccc2C(=O)N1CCS(=O)(=O)O, the T/C [8] is reported as 100 % of control, the T/C [9] is reported as 104 % of control and the T/C (dose: 50.0 mg/kg/injection, schedule: Q01DX009 (ip), vehicle: saline) is reported as 100 % of control. For the same molecule, the T/C (dose: 100.0 mg/kg/injection, schedule: Q01DX009 (ip), vehicle: saline) was 98 % of control.
